Data reported in patent US5646316A, “Bile acid inhibitors of metalloproteinase enzymes” (OsteoArthritis Sciences, Inc., priority 1995, dated 1997).
Where two headings read alike, the source gives them in different places.

What was measured:
chondrocytes = assay: Chondrocyte Cell Culture Matrix Breakdown Assay (35S release, rhIL-1α stimulated); format: cell-based, calf; settings: Bos taurus, Chondrocyte, read-out: percent inhibition, Cell Culture
Method: A cell culture assay was used to measure the ability of compounds to slow the degradation of the extracellular matrix by a metalloproteinase. This assay measured the amount ^35 S released from chondrocytes grown in a media with ^35 S labeled sodium sulfate. The cell culture assay was carried out as follows:
Two or three 1 to 3 week old calf joints were obtained from an abattoir. The proximal end of the shank was at about 4-5" long to facilitate immobilization in the holder. The joint was kept cool and transported on ice. The exterior of the intact joints was washed well with a suitable anti-microbial soap, rinsed clean with warm water, rinsed in betadine and then finally rinsed with 70% ethanol. Up to this point all steps were done in a manner to ensure that the joint was kept as clean as possible. All subsequent steps were performed in a sterile field (i.e., in a Edgeguard laminar flow tissue culture hood). The joint was immobilized and the synovial fluid was aspirated with a needle and syringe. The joint was then cut open to expose the articular cartilage using a #21 scalpel. Using locking hemostats, forceps and a #15 scalpel, the cartilage was excised in full thickness pieces. Care was taken not to cut too deep because bleeding would have occurred if the subchondral bone, was penetrated. The cartilage pieces were placed into a 50 mL centrifuge tube containing 25 mL of Delbecco's phosphate buffered saline (D-PBS) supplemented with 1% antibiotic solution (penicillin, streptomycin and fungizone; GIBCO/BRL). The slices from each joint were then placed into separate 50 mL centrifuge tubes. The D-PBS was decanted and replaced with 25 mL of fresh D-PBS supplemented with antibiotics and subsequently agitated gently.
The cartilage pieces were transferred to a fresh 50 mL centrifuge tube and rinsed once more with 25 mL of D-PBS minus antibiotics. An enzymatic digestion solution containing 1 mg/mL of hyaluronidase in serum-free 1:1 DMEM/Ham's F-12 (DMEM/F12) was prepared. This solution was filter sterilized with […] Milex--GV filter and kept on ice until ready to use. The cartilage pieces were digested with approximately 5 mL of hyaluronidase solution per joint for 2×15 minutes at 37° C. in the 50 mL centrifuge tube with gentle agitation at the 15 minute mark. This procedure removed residual hyaluronic acid from the surface of the chips. The enzymatic digestion solution was then aspirated and the cartilage pieces were rinsed with 25 mL of D-PBS.
A second enzymatic digestion solution containing 2.5 mg trypsin and 2 mg collagenase P per mL serum-free DMEM/F12 was prepared. This solution was also filter sterilized with a […] Millex--GV filter and kept on ice until ready to use. The cartilage pieces were digested with approximately 5 mL of trypsin: collagenase solution per joint for 2×15 minutes at 37° C. in the 50 mL centrifuge tube with gentle agitation at the 15 minute mark. This procedure removed the synovial fibroblasts and any adherent connective tissue from the surface of the chips. The enzymatic digestion solution was then carefully removed and saved and the cartilage pieces were rinsed with 25 mL of D-PBS.
A third enzymatic solution containing 2 mgs of collagenase P (BMB) per mL serum-free DMEM/F12 was prepared. This solution was filter sterilized with a […] Millex--GV filter and kept on ice until ready to use. The pre-digested cartilage pieces were finally digested with approximately 20 mL of enzymatic digestion solution per joint for 5-6 hours at 37° C. in a Bellco stirring digestion flask, at which point the cartilage was fully digested away.
The enzymes in the synovial fibroblast and chondrocyte digest were neutralized by addition of an equal volume of DMEM/F12 supplemented with 5% fetal bovine serum. Fibroblasts were plated in DMEM at a cellular density of 6.6×10^3 cells per cm^2. […]

stromelysin = stromelysin (Homo sapiens, UniProt P08254); assay: Assay of Stromelysin Inhibition Activity (fluorogenic substrate hydrolysis); format: biochemical; settings: for inhibition at 10 µM: read-out: percent inhibition of stromelysin
stromelysin, sequence (P08254 100-477): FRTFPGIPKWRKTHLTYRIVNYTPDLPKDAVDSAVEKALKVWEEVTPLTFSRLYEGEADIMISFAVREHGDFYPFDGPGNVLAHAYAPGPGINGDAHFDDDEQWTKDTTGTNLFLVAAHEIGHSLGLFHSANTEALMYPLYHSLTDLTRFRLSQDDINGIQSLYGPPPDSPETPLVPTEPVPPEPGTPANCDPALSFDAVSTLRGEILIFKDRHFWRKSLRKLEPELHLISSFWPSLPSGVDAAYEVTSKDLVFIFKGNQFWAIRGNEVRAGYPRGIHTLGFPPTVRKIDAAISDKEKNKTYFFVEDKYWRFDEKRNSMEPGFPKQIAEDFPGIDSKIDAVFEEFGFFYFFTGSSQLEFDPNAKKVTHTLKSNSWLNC
Method: (§1) Stromelysin was first activated by trypsin. This was done by preparing a reaction mixture in B-150 (B-150 consists of 150 mM NaCl, 20 mM Tris at pH 7.8 and 0.02% sodium azide) containing a final concentration of 4 μg/mL trypsin, 1.48 μg/mL of stromelysin, and 3.15 mM CaCl2. The reaction was incubated for 30 minutes at 37° C. and then quenched by adding soybean trypsin inhibitor to a final concentration of 43.6 μg/mL. ZnCl2 was added to the reaction mixture for a total concentration of 0.24 μM.
(§2) Following preparation of the solution of activated stromelysin, assay solutions were prepared for each inhibitor being tested. A control was also prepared. First, […] of activated stromelysin (about 45 μL from the solution of activated stromelysin) were aliquotted per assay tube. A 2.5 mM solution in 100% dimethyl sulfoxide (DMSO) was prepared for each inhibitor being tested and 1 μL from each inhibitor solution was added to one of the assay tubes. In addition, 1 μL of 100% DMSO was added to the control assay tube. All assay tubes were then pre-incubated for 5 minutes.
(§3) 5 μL of a previously prepared 50 μM solution of substrate in 15% DMSO were added to each assay tube. The substrate was a methoxycumarin developed by Knight et al. FEBS Lett. 296:263-66 (1992). The tubes were then incubated for 60 minutes, at which time the reaction was stopped with the addition of 750 μL of 0.1M NaAc pH 4.0 buffer.
(§4) Substrate hydrolysis was assessed by fluorescence using a slit width of 10:10, excitation at 328 nm and emission at 393 nm. The results of these assays are listed in Table I as percent inhibition at 10 μM of the bile acid provided compound tested or as the IC50.

collagenase = assay: Assay of Collagenase Inhibition Activity; format: biochemical; settings: at 10 μM of compound; 45 minutes at 37° C.
Method: as §1, §2, §3, §4
The assay procedure for collagenase was the same as described in Example 13 for stromelysin except that the trypsin activation was performed for 45 minutes. In addition, the incubation of the assay tubes at 37° C. was only for 45 minutes, and the final enzyme concentration is 6 nm. The results of these assays are provided in Table I as percent inhibition at 10 μM of the compound tested.

[1] = test system: bovine cartilage explants; assay: Bovine Cartilage Explant Assay (35S-GAG release, rhIL-1α stimulated; tissue culture); format: cell-based; settings: Bos taurus; at 50 μM; rhIL-1α 5 ng/mL; 3-4 days; read-out: percent inhibition of extracellular matrix damage, Tissue Culture
From the text: A tissue culture assay was used to measure the ability of the compounds of the present invention to slow the degradation of the extracellular matrix by metalloproteinases. This assay measured the amount of ^35 S-glycosaminoglycan (^35 S-GAG) released from labeled bovine cartilage explants.
Knee joints from a 1 to 3 week old calf were obtained immediately after sacrifice from the Abattoir and then transported on ice. The intact joints were washed well with tap water and soaked in 50% (v/v) Povidine iodine solution, obtained from Burre National, Inc., Baltimore, Md. All subsequent steps were performed in a laminar flow tissue culture hood using standard sterile technique. The joint was immobilized in a shank holder and the joint capsule was cut open to expose the articular cartilage. Cartilage explant plugs, approximately 15 mg wet weight, were removed from the flat articulating surfaces in the lower-most region of the knee joint using a sterile steel cork-borer and collected in a 250 mL roller bottle containing about 100 mL fresh Delbecco's minimum essential medium (DMEM), obtained from Gibco BRC, Life Technologies, Gaithersburg, Md., containing 4.5 g/1 (D)-glucose and (L)-glutamine, without sodium pyruvate. The fresh media also contained enough Hepes buffer and sodium bicarbonate such that the pH was about 7.4. The media was then further supplemented just before use with 100 units Penicillin, 100 μg Streptomycin, and 50 μg (L)-ascorbic acid per mL of medium.
Once collected, the explant plugs were washed four times with 50 mL fresh DMEM. The plugs were then placed in the incubator for a minimum of 1 hour to equilibrate, before proceeding to make disks from the articulating surface of each plug. A 1 mm thick disk was sliced from individual plugs from the end that was the articulating surface of the joint. The plug was held steady in the sterile template (4 mm diameter×1.5 mm deep) using sterile forceps. A scalpel blade was used to carefully slice off the disk. Only the superficial articulating surface responded well in culture.
Individual disks obtained were transferred to a tissue culture flask containing about 100 mL fresh media. The flask containing the disks was placed in an incubator at 37° C. (with 5% CO2, 95% air) and allowed to equilibrate overnight and at least one additional day before labeling. When ready to label, the old media was replaced with 50 mL fresh media containing about 500 μCi ^35 S-Sodium Sulfate. The plugs were labeled in bulk for about 48 hours. The next morning, the "hot" media was removed and replaced with fresh "cold" media. The disks were again allowed to equilibrate overnight before being used for actual experiments.
The media in which the disks were stored was changed immediately prior to performing the assay. The disks were then returned to the incubator until the test media and the two control media had been prepared. The test media consisted of a bile acid or bile acid derivative (50 μM) being tested for its ability to inhibit extracellular matrix degradation and concomitant recombinant human Interleukin rhIL-1α (5 ng/mL) in fresh DMEM solution. The control media were identical to the test media, except that the first control media lacked rhIL-1α and the second control media lacked an inhibitor, i.e. a bile acid or bile acid derivative. 250 μL of each of the test and control media were transferred to separate 96-well TC plates. Flamed forceps were used to transfer a disk from the incubator to each 96-well TC plates that had been filled with either the test media or one of the two control media.
The TC plates were then placed in the incubator and cultured for 3-4 days (initial incubation with rhIL-1α alpha takes at least 3 days to stimulate endogenous metalloproteinases). A 50 μL aliquot of media from each TC plate was saved and counted. The rest of the media was removed with a suction device.
The cartilage disks from each TC plate were also saved for counting. […]

[2] = at 50 μM, rhIL-1α 1 ng/ml, 22-24 hours

SMILES | inhibition at 50 µM (chondrocytes; [2]) [%] | inhibition at 10 µM (stromelysin; at 10 μM of compound) [%] | also measured
C[C@H](CCC(=O)O)[C@H]1CC[C@H]2[C@@H]3CC[C@@H]4C[C@H](O)CC[C@]4(C)[C@H]3C[C@H](O)[C@]12C [Compound 2, deoxycholic acid, reference compound] | -14 | – | inhibition at 10 µM (stromelysin): 23%
C[C@H](CCC(=O)O)[C@H]1CC[C@H]2[C@@H]3[C@@H](O)C[C@@H]4C[C@H](O)CC[C@]4(C)[C@H]3CC[C@]12C [Compound 3, ursodeoxycholic acid, reference compound] | 5 | 21 | –
C[C@H](CCC(=O)O)[C@H]1CC[C@H]2[C@@H]3C[C@H](O)[C@@H]4C[C@H](O)CC[C@]4(C)[C@H]3CC[C@]12C [Compound 4, hyodeoxycholic acid, reference compound] | 7 | 18 | –
C[C@H](CCC(=O)NCCC[N+](C)(C)CC(O)CS(=O)(=O)[O-])[C@H]1CC[C@H]2[C@@H]3[C@H](O)C[C@@H]4C[C@H](O)CC[C@]4(C)[C@H]3C[C@H](O)[C@]12C (stereo partly drawn) [Compound 5, 3-[(3-cholamidopropyl)dimethylammonio]-2-hydroxy-1-propanesulfonate, reference compound] | – | – | inhibition at 50 µM (chondrocytes): 35%; inhibition at 10 µM (stromelysin): 15%
C[C@H](CCC(=O)O)[C@H]1CC[C@H]2[C@@H]3[C@H](O)C[C@@H]4C[C@H](O)CC[C@]4(C)[C@H]3CC[C@]12C [Compound 6, Chenodeoxycholic acid, reference compound] | – | – | percent inhibition of collagenase (collagenase): 6%; inhibition at 50 µM [1]: 23%
C[C@H](CCC(=O)NO)[C@H]1CC[C@H]2[C@@H]3[C@H](O)C[C@@H]4C[C@H](O)CC[C@]4(C)[C@H]3CC[C@]12C [Compound 14, Chenodeoxycholyhydroxamic Acid] | 77 | – | percent inhibition of collagenase (collagenase): 19%
C[C@H](CCC(=O)N[C@H](Cc1ccccc1)C(=O)NO)[C@H]1CC[C@H]2[C@@H]3CC[C@@H]4C[C@H](O)CC[C@]4(C)[C@H]3CC[C@]12C [Compound 22, Lithocholyl-(D)-Phenylalanine Hydroxamic Acid] | 5 | – | IC50 (stromelysin; 60 minutes incubation): 1.2 µM
C[C@H](CCC(=O)NO)[C@H]1CC[C@H]2[C@@H]3[C@H](O)C[C@@H]4C[C@H](O)CC[C@]4(C)[C@H]3C[C@H](O)[C@]12C [Compound 23, Cholylhydroxamic Acid] | -20 | 12 | –
C[C@H](CCC(=O)N[C@@H](CCc1ccccc1)C(=O)NO)[C@H]1CC[C@H]2[C@@H]3CC[C@@H]4C[C@H](O)CC[C@]4(C)[C@H]3CC[C@]12C [Compound 27, Lithocholyl-(L)-homophenylalanine Hydroxamic Acid] | – | 90 | –
C[C@H](CCC(=O)N[C@H](CCc1ccccc1)C(=O)NO)[C@H]1CC[C@H]2[C@@H]3CC[C@@H]4C[C@H](O)CC[C@]4(C)[C@H]3CC[C@]12C [Compound 28, Lithocholyl-(D)-homophenylalanine Hydroxamic Acid] | – | 92 | –
